Reference: ChEMBL document CHEMBL6083255, “Synthesis and biological evaluation of novel isobenzofuran-1(3H)-one derivatives as antidepressant agents” (2024)
Calls of active or inactive are those of the source. No cut-off for these calls is given here.

Legend:
RBL-2H3 [1] = test: Cytotoxicity against Wistar rat RBL-2H3 cells assessed as cell viability at 1 uM incubated for 24 hrs by MTT assay; format: functional; conditions: read-out: Activity
RBL-2H3 [2] = test: Cytotoxicity against Wistar rat RBL-2H3 cells assessed as cell viability at 125 uM incubated for 24 hrs by MTT assay; format: functional; conditions: read-out: Activity
[3] = target: Sodium-dependent serotonin transporter (Rattus norvegicus) (UniProt P31652); test: Inhibition of SERT in Wistar rat RBL-2H3 cells assessed as decrease in fluorescence intensity at 10 uM preincubated for 2 hrs followed by APP+ addition and measured after 1 hr by fluorescence based assay; format: cell-based; conditions: time 3.0 hrs
RBL-2H3 [4] = test: Cytotoxicity against Wistar rat RBL-2H3 cells assessed as cell viability at 25 uM incubated for 24 hrs by MTT assay; format: functional; conditions: read-out: Activity
RBL-2H3 [5] = test: Cytotoxicity against Wistar rat RBL-2H3 cells assessed as cell viability at 5 uM incubated for 24 hrs by MTT assay; format: functional; conditions: read-out: Activity
CHO-K1 = test: Antagonist activity at mu opioid receptor in CHO-K1 cells assessed as intracellular fluorescence intensity at 50 uM incubated for 2 mins by microplate reader assay; format: cell-based; conditions: Cricetulus griseus, filed as antagonist

Sodium-dependent serotonin transporter (Rattus norvegicus), sequence (P31652 whole entry): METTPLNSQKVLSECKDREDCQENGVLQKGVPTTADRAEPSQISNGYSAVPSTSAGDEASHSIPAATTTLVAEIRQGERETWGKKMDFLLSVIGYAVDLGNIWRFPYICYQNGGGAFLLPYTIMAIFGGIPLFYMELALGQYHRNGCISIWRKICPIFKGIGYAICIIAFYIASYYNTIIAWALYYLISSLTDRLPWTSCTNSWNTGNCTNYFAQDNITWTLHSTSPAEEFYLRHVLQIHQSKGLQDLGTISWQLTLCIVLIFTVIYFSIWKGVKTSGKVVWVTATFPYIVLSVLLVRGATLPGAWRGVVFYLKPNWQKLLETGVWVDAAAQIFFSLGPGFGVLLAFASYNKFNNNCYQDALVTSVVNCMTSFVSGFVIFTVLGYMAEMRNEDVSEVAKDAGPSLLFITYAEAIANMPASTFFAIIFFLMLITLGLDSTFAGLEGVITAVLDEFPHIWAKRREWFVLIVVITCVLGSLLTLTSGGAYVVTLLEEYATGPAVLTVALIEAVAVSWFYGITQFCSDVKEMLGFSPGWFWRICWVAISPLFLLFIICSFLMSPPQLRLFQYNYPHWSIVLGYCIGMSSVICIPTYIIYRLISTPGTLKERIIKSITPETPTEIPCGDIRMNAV

Structure (SMILES) | viability at 1 µM (RBL-2H3 [1]) [%] | viability at 125 µM (RBL-2H3 [2]) [%] | Activity [3] | viability at 25 µM (RBL-2H3 [4]) [%] | viability at 5 µM (RBL-2H3 [5]) [%] | Activity (CHO-K1)
O=C1OC(CN2CCCC2)(c2ccccc2)c2ccccc21 (stereo unspecified) | 119 | 181 | Active | 133 | 139 | 
CCOC(=O)C1CCN(CC2(c3ccc(C)cc3)OC(=O)c3ccccc32)CC1 (stereo unspecified) | 102 | 157 | inactive | 125 | 108 | 
CC(=O)N1CCN(CC2(c3ccc(Cl)cc3)OC(=O)c3ccccc32)CC1 (stereo unspecified) | 99.8 | 141 | Active | 125 | 106 | 
CCOC(=O)C1CCN(CC2(c3ccccc3)OC(=O)c3ccccc32)CC1 (stereo unspecified) | 99.7 | 178 | inactive | 130 | 105 | 
Cc1ccc(C2(CN3CCCCCC3)OC(=O)c3ccccc32)cc1 (stereo unspecified) | 98.8 | 171 | inactive | 140 | 106 | 
CC1CCCN(CC2(c3ccc(Cl)cc3)OC(=O)c3ccccc32)C1 (stereo unspecified) | 99.2 | 104 | Active | 102 | 98 | 
O=C1OC(CN2CCCCC2)(c2ccccc2)c2ccccc21 (stereo unspecified) | 99.2 | 112 | Active | 118 | 102 | 
O=C1OC(CN2CCCCCC2)(c2ccc(Cl)cc2)c2ccccc21 (stereo unspecified) | 104 | 144 | Active | 119 | 109 | 
C=CCN1CC[C@]23c4c5ccc(O)c4O[C@H]2C(=O)CC[C@@]3(O)[C@H]1C5 |  |  |  |  |  | Active
CC(=O)N1CCN(CC2(c3ccccc3)OC(=O)c3ccccc32)CC1 (stereo unspecified) | 102 | 165 | inactive | 129 | 109 | 
CCN(CC)CC1(c2ccccc2)OC(=O)c2ccccc21 (stereo unspecified) | 106 | 127 | Active | 125 | 113 | 
CCN(CC)CC1(c2ccc(C)cc2)OC(=O)c2ccccc21 (stereo unspecified) | 101 | 160 | Active | 123 | 106 | 
CC1CCCN(CC2(c3ccccc3)OC(=O)c3ccccc32)C1 (stereo unspecified) | 92.7 | 141 | Active | 116 | 101 | 
Cc1ccc(C2(CN3CCCC(C)C3)OC(=O)c3ccccc32)cc1 (stereo unspecified) | 97.6 | 157 | inactive | 121 | 101 | 
Cc1ccc(C2(CN3CCCC3)OC(=O)c3ccccc32)cc1 (stereo unspecified) | 94.8 | 122 | Active | 100 | 95.5 | 
Cc1ccc(C2(CN3CCCCC3)OC(=O)c3ccccc32)cc1 (stereo unspecified) | 101 | 108 | Active | 99 | 98.4 | 
CCOC(=O)C1CCN(CC2(c3ccc(Cl)cc3)OC(=O)c3ccccc32)CC1 (stereo unspecified) | 99 | 99 | inactive | 96.4 | 97 | 
CC(=O)N1CCN(CC2(c3ccc(C)cc3)OC(=O)c3ccccc32)CC1 (stereo unspecified) | 93.3 | 120 | Active | 119 | 97.2 | 
